± gives the standard deviation of the averaged measurements.
Assays:
Details in all cases: 72 h
Caco-2 [1] = assay: cell viability relative to DMSO; higher = less toxic
Calu-3 [2] = assay: as above
HepG2 [3] = assay: as above
U2OS [4] = assay: as above
Vero E6 [5] = assay: as above
Caco-2 [6] = assay: relative viability EC50 (midpoint between 100% and the lowest measured viability); higher = less toxic
Calu-3 [7] = assay: as above
HepG2 [8] = assay: as above
U2OS [9] = assay: as above
Vero E6 [10] = assay: as above
Caco-2 [11] = assay: drug sensitivity score (DSS) for viability; higher = more toxic; extreme values may be limits of the assay
Calu-3 [12] = assay: as above
HepG2 [13] = assay: as above
U2OS [14] = assay: as above
Vero E6 [15] = assay: as above

| SMILES | cell viability (Caco-2 [1]; 1 nM) | cell viability (Caco-2 [1]; 10 nM) | cell viability (Caco-2 [1]; 100 nM) | cell viability (Caco-2 [1]; 1000 nM) | cell viability (Caco-2 [1]; 10000 nM) | cell viability (Calu-3 [2]; 1 nM) | cell viability (Calu-3 [2]; 10 nM) | cell viability (Calu-3 [2]; 100 nM) | cell viability (Calu-3 [2]; 1000 nM) | cell viability (Calu-3 [2]; 10000 nM) | cell viability (HepG2 [3]; 1 nM) | cell viability (HepG2 [3]; 10 nM) | cell viability (HepG2 [3]; 100 nM) | cell viability (HepG2 [3]; 1000 nM) | cell viability (HepG2 [3]; 10000 nM) | cell viability (U2OS [4]; 1 nM) | cell viability (U2OS [4]; 10 nM) | cell viability (U2OS [4]; 100 nM) | cell viability (U2OS [4]; 1000 nM) | cell viability (U2OS [4]; 10000 nM) | cell viability (Vero E6 [5]; 1 nM) | cell viability (Vero E6 [5]; 10 nM) | cell viability (Vero E6 [5]; 100 nM) | cell viability (Vero E6 [5]; 1000 nM) | cell viability (Vero E6 [5]; 10000 nM) | relative viability EC50 (Caco-2 [6]) | relative viability EC50 (Calu-3 [7]) | relative viability EC50 (HepG2 [8]) | relative viability EC50 (U2OS [9]) | relative viability EC50 (Vero E6 [10]) | drug sensitivity score (Caco-2 [11]) | drug sensitivity score (Calu-3 [12]) | drug sensitivity score (HepG2 [13]) | drug sensitivity score (U2OS [14]) | drug sensitivity score (Vero E6 [15]) |
| --- | --- | --- | --- | --- | --- | --- | --- | --- | --- | --- | --- | --- | --- | --- | --- | --- | --- | --- | --- | --- | --- | --- | --- | --- | --- | --- | --- | --- | --- | --- | --- | --- | --- | --- | --- |
| OC(c1ccccc1)C1CCN(CCc2ccccc2)CC1 (stereo not given) | 98.4% | 95.2% | 102% | 101% | 95.4% | 97.3% | 85% | 111% | 108% | 104% | 88.4% | 110% | 96.7% | 105% | 114% | 101% | 96.7% | 102% | 98% | 101% | 96.3% | 94.1% | 93.5% | 93.8% | 106% | > 10 µM | > 10 µM | > 10 µM | > 10 µM | > 10 µM | 0 | 0 | 0 | 0 | 0 |
| O=c1cc(N2CCOCC2)oc2c(-c3ccccc3)cccc12 | 109% | 94.9% | 89% | 96.5% | 81.9% | 98% | 93.7% | 97.4% | 98.2% | 76.5% | 93.5% | 101% | 110% | 105% | 86.1% | 97.5% | 95% | 94.2% | 97.8% | 92.3% | 99.8% | 97.4% | 96.1% | 92.4% | 77.1% | > 10 µM | > 10 µM | > 10 µM | > 10 µM | > 10 µM | 0.6 | 1.1 | 0.1 | 0 | 1.3 |
| Cc1cc(O)c2c(=O)c3c(O)cc(O)c4c5c(O)cc(O)c6c(=O)c7c(O)cc(C)c8c1c2c(c34)c(c78)c65 [hypericin] | 104% | 101% | 104% | 99.4% | 98.3% | 106% | 101% | 94% | 110% | 79.7% | 108% | 106% | 103% | 101% | 81.9% | 102% | 94.6% | 91.2% | 96.2% | 77.1% | 96.3% | 91.3% | 101% | 80.7% | 95.7% | > 10 µM | > 10 µM | > 10 µM | > 10 µM | > 10 µM | 0 | 0.3 | 0.4 | 1.4 | 0 |
| COC(=O)N[C@H](C(=O)N1CCC[C@H]1c1nc(-c2ccc3c(c2)O[C@@H](c2ccccc2)n2c-3cc3cc(-c4c[nH]c([C@@H]5CCCN5C(=O)[C@@H](NC(=O)OC)C(C)C)n4)ccc32)c[nH]1)C(C)C [elbasvir] | 85% | 103% | 93.1% | 96.1% | 101% | 99.9% | 106% | 95.8% | 107% | 102% | 110% | 88.7% | 108% | 104% | 96.8% | 90.3% | 100% | 98.2% | 97.8% | 99.7% | 105% | 98.5% | 95.3% | 95.5% | 107% | > 10 µM | > 10 µM | > 10 µM | > 10 µM | > 10 µM | 0 | 0 | 0 | 0 | 0 |
| COC(=O)c1ccccc1NC(=O)c1ccc(F)cc1 [EXO-1] | 99.5% | 93% | 100% | 103% | 100% | 97.9% | 98.1% | 99.6% | 95.6% | 96.5% | 95.6% | 99.9% | 91.8% | 94.7% | 111% | 98.7% | 91.8% | 98.3% | 95.7% | 98.8% | 95.2% | 94.6% | 91% | 93.6% | 99.5% | > 10 µM | > 10 µM | > 10 µM | > 10 µM | > 10 µM | 0 | 0 | 0 | 0 | 0 |
| CNCCC=C1c2ccccc2C=Cc2ccccc21 [norcyclobenzaprine] | 94.2% | 96.4% | 97.7% | 102% | 90.5% | 109% | 96.6% | 103% | 105% | 84.8% | 94.7% | 93.4% | 102% | 98.3% | 89.3% | 102% | 98.1% | 100% | 106% | 100% | 95.9% | 97.5% | 92.6% | 94.5% | 95.2% | > 10 µM | > 10 µM | > 10 µM | > 10 µM | > 10 µM | 0 | 0.1 | 0 | 0 | 0 |
| CC(C)C(=O)Nc1ccc([N+](=O)[O-])c(C(F)(F)F)c1 [flutamide] | 107% | 108% | 92.1% | 116% | 85.7% | 101% | 96.2% | 99.6% | 101% | 94.9% | 94.5% | 107% | 96.9% | 84.2% | 90.7% | 92% | 97.2% | 94.3% | 100% | 93.8% | 106% | 89.8% | 104% | 107% | 111% | > 10 µM | > 10 µM | > 10 µM | > 10 µM | > 10 µM | 0 | 0 | 2 | 0 | 0 |
| CC(=O)Nc1cccc(-n2c(=O)n(C3CC3)c(=O)c3c(Nc4ccc(I)cc4F)n(C)c(=O)c(C)c32)c1 [trametinib] | 80.4% | 65.4% | 40.6% | 21.3% | 16% | 94.8% | 73.6% | 62% | 33.8% | 24.8% | 99.3% | 45.5% | 30.5% | 25.3% | 23.2% | 99.3% | 91.9% | 89.7% | 60.8% | 29.3% | 101% | 94.2% | 67.9% | 15.7% | 15.8% | 0.0156 µM | 0.0536 µM | 0.0064 µM | 0.695 µM | 0.129 µM | 26.5 | 19 | 30.5 | 9 | 19.2 |
| O=C(CCc1ccc(O)cc1)c1c(O)cc(O)cc1O [phloretin] | 92.1% | 101% | 97.5% | 101% | 98.6% | 104% | 93.2% | 98.7% | 98% | 91.3% | 107% | 98.3% | 94.2% | 99.1% | 99.4% | 95.8% | 100% | 103% | 96.8% | 101% | 105% | 102% | 99.9% | 103% | 95.1% | > 10 µM | > 10 µM | > 10 µM | > 10 µM | > 10 µM | 0 | 0 | 0 | 0 | 0 |
| CC(/C=C/C(=O)NO)=C\[C@@H](C)C(=O)c1ccc(N(C)C)cc1 [trichostatin-a] | 97.3% | 101% | 37.1% | 2.4% | 3% | 107% | 103% | 89% | 20.4% | 7.5% | 101% | 93.1% | 84.2% | 0.4% | 0% | 99.7% | 95.4% | 77.3% | 1% | 0.7% | 98.7% | 94.4% | 44% | -0.2% | -0.1% | 0.0788 µM | 0.336 µM | 0.194 µM | 0.162 µM | 0.0838 µM | 24.9 | 16 | 20.6 | 21.4 | 24.6 |
| CC(C)(C)N1CCC(c2ccccc2)(c2ccccc2)CC1 [budipine] | 98.4% | 103% | 86.3% | 102% | 82.7% | 96.9% | 97.3% | 101% | 101% | 96.7% | 88.8% | 95.8% | 101% | 102% | 88.9% | 91.9% | 99% | 97.3% | 102% | 97.6% | 96.1% | 91.8% | 91.9% | 93.9% | 98.8% | > 10 µM | > 10 µM | > 10 µM | > 10 µM | > 10 µM | 0.3 | 0 | 0 | 0 | 0 |
| C[C@H]1C[C@H]2[C@@H]3CCC4=CC(=O)C=C[C@]4(C)[C@@]3(F)[C@@H](O)C[C@]2(C)[C@@]1(O)C(=O)CO [betamethasone] | 101 ± 2.2% | 92.85 ± 0.49% | 84.5 ± 5.2% | 99.1 ± 5.8% | 92.9 ± 12% | 106 ± 9.1% | 107 ± 7.4% | 95.05 ± 0.49% | 102 ± 3.6% | 95 ± 3.5% | 101 ± 4.1% | 97 ± 4.6% | 99.4 ± 11% | 90.2 ± 15% | 89.7 ± 4.4% | 99.6 ± 3.8% | 101 ± 1.3% | 94.5 ± 2.9% | 97.5 ± 2.7% | 92.4 ± 1.4% | 97 ± 4.5% | 91.7 ± 5.5% | 94.5 ± 8.6% | 95.4 ± 4.1% | 92.1 ± 6.5% | > 10 µM | > 10 µM | > 10 µM | > 10 µM | > 10 µM | 0.25 ± 0.35 | 0 | 1.3 ± 1.7 | 0 | 0.1 ± 0.14 |
| COc1cc2c(NC3CCN(C)CC3)nc(N3CCCN(C)CC3)nc2cc1OCCCN(C)C [UNC0224] | 99.3% | 101% | 89.9% | 95.8% | 103% | 143% | 103% | 94.2% | 97.9% | 98.9% | 90.3% | 97.4% | 98.8% | 101% | 95.9% | 103% | 96% | 104% | 101% | 101% | 96.7% | 102% | 101% | 102% | 98.1% | > 10 µM | > 10 µM | > 10 µM | > 10 µM | > 10 µM | 0 | 0 | 0 | 0 | 0 |
| Cc1cc(-c2nc(C(=O)Nc3cn(C4CCOCC4)nc3C(N)=O)co2)ccn1 | 97.5% | 94.4% | 101% | 98.2% | 93.3% | 109% | 97% | 85.7% | 95% | 93.2% | 99.9% | 113% | 88.6% | 82.9% | 96.3% | 99% | 94.7% | 99.8% | 100% | 99.3% | 93.5% | 103% | 101% | 93% | 92.1% | > 10 µM | > 10 µM | > 10 µM | > 10 µM | > 10 µM | 0 | 0 | 2.9 | 0 | 0 |
| O=C(O)CCCCCCNC1c2ccccc2CCc2ccccc21 [amineptine] | 90.6% | 99.7% | 99% | 103% | 110% | 101% | 95.3% | 111% | 96.2% | 102% | 109% | 102% | 93% | 98.8% | 105% | 98.8% | 101% | 97.9% | 99% | 98.9% | 104% | 107% | 99% | 100% | 97.2% | > 10 µM | > 10 µM | > 10 µM | > 10 µM | > 10 µM | 0 | 0 | 0 | 0 | 0 |

Reference: the supplement of paper PMC13380429
